Source: patent US6825170B2, “6-O-acyl ketolide antibacterials” (Ortho-McNeil Pharmaceutical, Inc., priority 2001, dated 2004)
Converted amounts (≈) assume the structure as drawn.

Columns and labels:
Experiment in all cases: MIC, microdilution broth method (NCCLS)
Type in all cases: cell-based
Details in all cases: 35° C., 16-20 hours
E. coli OC2605 = system: E. coli OC2605
Outline: (§1)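 Broth microdilution per NCCLS M7-A4; cation-adjusted Mueller-Hinton broth, 2-fold serial dilutions; inoculum ~5×10^4 CFU/well from turbidity-adjusted log-phase culture; 35° C., 16-20 h; growth scored vs no-compound control.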

E. faecalis ATCC29212 = system: E. faecalis ATCC29212
Outline: as §1

H. influenzae ATCC49247 = system: H. influenzae ATCC49247
Outline: as §1

S. aureus ATCC29213 = system: S. aureus ATCC29213
Outline: as §1

S. pneumoniae ATCC49619 = system: S. pneumoniae ATCC49619
Outline: as §1

Row | Structure (SMILES) | MIC (A: E. coli OC2605) (E. coli OC2605) | MIC (C: E. faecalis ATCC29212) (E. faecalis ATCC29212) | MIC (E: H. influenzae ATCC49247) (H. influenzae ATCC49247) | MIC (B: S. aureus ATCC29213) (S. aureus ATCC29213) | MIC (D: S. pneumoniae ATCC49619) (S. pneumoniae ATCC49619) | MIC (E. coli OC2605; Escherichia coli) | MIC (E. faecalis ATCC29212; Enterococcus faecalis) | MIC (H. influenzae ATCC49247; Haemophilus influenzae, read-out: MIC (E: H. influenzae ATCC49247)) | MIC (S. aureus ATCC29213; Staphylococcus aureus, read-out: MIC (B: S. aureus ATCC29213)) | MIC (S. pneumoniae ATCC49619; Streptococcus pneumoniae, read-out: MIC (D: S. pneumoniae ATCC49619))
1 | CCC1OC(=O)C(C)C(=O)C(C)C(OC2OC(C)CC(N(C)C)C2O)C(C)(OC(=O)OCC=Cc2ccc(-c3cccnn3)cc2)CC(C)C(=O)C(C)C2NC(=O)OC12C (centres unmarked) [Compound 20] | 8 µg/mL (≈ 9.56 µM) | 0.06 µg/mL (≈ 0.0717 µM) | 2 µg/mL (≈ 2.39 µM) | 0.12 µg/mL (≈ 0.143 µM) | 0.03 µg/mL (≈ 0.0358 µM) |  |  |  |  | 
2 | CC[C@H]1OC(=O)[C@H](C)C(=O)[C@H](C)[C@@H](O[C@@H]2O[C@H](C)C[C@H](N(C)C)[C@H]2O)[C@](C)(OC(=O)NN(C/C=C/c2ccc(-c3ncccn3)cc2)C/C=C/c2ccc(-c3ncccn3)cc2)C[C@@H](C)C(=O)[C@H](C)[C@H]2NC(=O)O[C@@]21C [Compound 806] | >16 µg/mL | 1 µg/mL (≈ 0.957 µM) | 16 µg/mL (≈ 15.3 µM) | 2 µg/mL (≈ 1.91 µM) | 0.12 µg/mL (≈ 0.115 µM) |  |  |  |  | 
3 | CC[C@H]1OC(=O)[C@H](C)C(=O)[C@H](C)[C@@H](O[C@@H]2O[C@H](C)C[C@H](N(C)C)[C@H]2O)[C@](C)(OC(=O)NN(C)Cc2ccc(-c3ncccn3)cc2)C[C@@H](C)C(=O)[C@H](C)[C@H]2NC(=O)O[C@@]21C [Compound 774] | >16 µg/mL | 0.25 µg/mL (≈ 0.298 µM) | 4 µg/mL (≈ 4.77 µM) | 2 µg/mL (≈ 2.38 µM) | 0.06 µg/mL (≈ 0.0715 µM) |  |  |  |  | 
4 | CC[C@H]1OC(=O)[C@H](C)C(=O)[C@H](C)[C@@H](O[C@@H]2O[C@H](C)C[C@H](N(C)C)[C@H]2O)[C@](C)(OC(=O)NN(C)CCc2ccc(-c3ncccn3)cc2)C[C@@H](C)C(=O)[C@H](C)[C@H]2NC(=O)O[C@@]21C [Compound 803] | >16 µg/mL | 0.12 µg/mL (≈ 0.141 µM) | 4 µg/mL (≈ 4.69 µM) | 0.25 µg/mL (≈ 0.293 µM) | 0.03 µg/mL (≈ 0.0352 µM) |  |  |  |  | 
5 | CCC1OC(=O)C(C)C(=O)C(C)C(OC2OC(C)CC(N(C)C)C2O)C(C)(OC(=O)NOCCCc2ccc(-c3ncccn3)cc2)CC(C)C(=O)C(C)C2NC(=O)OC12C (centres unmarked) [Compound 608] | >16 µg/mL | 0.5 µg/mL (≈ 0.585 µM) | 4 µg/mL (≈ 4.68 µM) | 0.5 µg/mL (≈ 0.585 µM) | 0.06 µg/mL (≈ 0.0703 µM) |  |  |  |  | 
6 | CC[C@H]1OC(=O)[C@H](C)C(=O)[C@H](C)[C@@H](O[C@@H]2O[C@H](C)C[C@H](N(C)C)[C@H]2O)[C@](C)(OC(=O)NN(C)C/C=C/c2ccc(-c3ncccn3)cc2)C[C@@H](C)C(=O)[C@H](C)[C@H]2NC(=O)O[C@@]21C [Compound 744] | >16 µg/mL | 0.25 µg/mL (≈ 0.289 µM) | 8 µg/mL (≈ 9.25 µM) | 0.25 µg/mL (≈ 0.289 µM) | 0.03 µg/mL (≈ 0.0347 µM) |  |  |  |  | 
7 | CCC1OC(=O)C(C)C(=O)C(C)C(OC2OC(C)CC(N(C)C)C2O)C(C)(OC(=O)NOCCc2ccc(-c3ncccn3)cc2)CC(C)C(=O)C(C)C2NC(=O)OC12C (centres unmarked) [Compound 571] | >16 µg/mL | 0.12 µg/mL (≈ 0.143 µM) | 4 µg/mL (≈ 4.76 µM) | 0.5 µg/mL (≈ 0.595 µM) | 0.03 µg/mL (≈ 0.0357 µM) |  |  |  |  | 
8 | CCC1OC(=O)C(C)C(=O)C(C)C(OC2OC(C)CC(N(C)C)C2O)C(C)(OC(=O)n2ccc(C=O)c2)CC(C)C(=O)C(C)C2NC(=O)OC12C (centres unmarked) [Compound 3] | >16 µg/mL | 4 µg/mL (≈ 5.56 µM) | >16 µg/mL | >16 µg/mL | 1 µg/mL (≈ 1.39 µM) |  |  |  |  | 
9 | CC[C@H]1OC(=O)[C@H](C)C(=O)[C@H](C)[C@@H](O[C@@H]2O[C@H](C)C[C@H](N(C)C)[C@H]2O)[C@](C)(OC(=O)NNC/C=C/c2ccc(-c3ncccn3)cc2)C[C@@H](C)C(=O)[C@H](C)[C@H]2NC(=O)O[C@@]21C [Compound 805] | 16 µg/mL (≈ 18.8 µM) | 0.25 µg/mL (≈ 0.294 µM) | 2 µg/mL (≈ 2.35 µM) | 0.25 µg/mL (≈ 0.294 µM) | 0.06 µg/mL (≈ 0.0705 µM) |  |  |  |  | 
10 | CC[C@H]1OC(=O)[C@H](C)C(=O)[C@H](C)[C@@H](O[C@@H]2O[C@H](C)C[C@H](N(C)C)[C@H]2O)[C@](C)(OC(=O)NNCCc2ccc(-c3ncccn3)cc2)C[C@@H](C)C(=O)[C@H](C)[C@H]2NC(=O)O[C@@]21C [Compound 626] | >16 µg/mL | 0.12 µg/mL (≈ 0.143 µM) | 4 µg/mL (≈ 4.77 µM) | 0.25 µg/mL (≈ 0.298 µM) | 0.03 µg/mL (≈ 0.0358 µM) |  |  |  |  | 
11 | CCC1OC(=O)C(C)C(=O)C(C)C(OC2OC(C)CC(N(C)C)C2O)C(C)(OC(=O)NOCC=Cc2ccc(-c3ncccn3)cc2)CC(C)C(=O)C(C)C2NC(=O)OC12C (centres unmarked) [Compound 605] | 16 µg/mL (≈ 18.8 µM) | 0.25 µg/mL (≈ 0.293 µM) | 4 µg/mL (≈ 4.69 µM) | 0.25 µg/mL (≈ 0.293 µM) | 0.06 µg/mL (≈ 0.0704 µM) |  |  |  |  | 

Results, then the compound that gave them:

Row | MIC (A: E. coli OC2605) (E. coli OC2605) | MIC (C: E. faecalis ATCC29212) (E. faecalis ATCC29212) | MIC (E: H. influenzae ATCC49247) (H. influenzae ATCC49247) | MIC (B: S. aureus ATCC29213) (S. aureus ATCC29213) | MIC (D: S. pneumoniae ATCC49619) (S. pneumoniae ATCC49619) | MIC (E. coli OC2605; Escherichia coli) | MIC (E. faecalis ATCC29212; Enterococcus faecalis) | MIC (H. influenzae ATCC49247; Haemophilus influenzae, read-out: MIC (E: H. influenzae ATCC49247)) | MIC (S. aureus ATCC29213; Staphylococcus aureus, read-out: MIC (B: S. aureus ATCC29213)) | MIC (S. pneumoniae ATCC49619; Streptococcus pneumoniae, read-out: MIC (D: S. pneumoniae ATCC49619)) | Structure (SMILES)
12 | >16 µg/mL | 4 µg/mL (≈ 6.09 µM) | 8 µg/mL (≈ 12.2 µM) | 16 µg/mL (≈ 24.4 µM) | 0.5 µg/mL (≈ 0.761 µM) |  |  |  |  |  | CCC1OC(=O)C(C)C(=O)C(C)C(OC2OC(C)CC(N(C)C)C2O)C(C)(OC(=O)NN)CC(C)C(=O)C(C)C2NC(=O)OC12C (centres unmarked) [Compound 5]
13 | >16 µg/mL | 4 µg/mL (≈ 5.58 µM) | >16 µg/mL | >16 µg/mL | 1 µg/mL (≈ 1.4 µM) |  |  |  |  |  | CCC1OC(=O)C(C)C(=O)C(C)C(OC2OC(C)CC(N(C)C)C2O)C(C)(OC(=O)n2ccc(C#N)c2)CC(C)C(=O)C(C)C2NC(=O)OC12C (centres unmarked) [Compound 4]
14 | >16 µg/mL | 0.5 µg/mL (≈ 0.656 µM) | 8 µg/mL (≈ 10.5 µM) | 2 µg/mL (≈ 2.62 µM) | 0.12 µg/mL (≈ 0.157 µM) |  |  |  |  |  | CC[C@H]1OC(=O)[C@H](C)C(=O)[C@H](C)[C@@H](O[C@@H]2O[C@H](C)C[C@H](N(C)C)[C@H]2O)[C@](C)(OC(=O)NOCCc2ccccc2)C[C@@H](C)C(=O)[C@H](C)[C@H]2NC(=O)O[C@@]21C [Compound 611]
15 | 8 µg/mL (≈ 9.58 µM) | 0.06 µg/mL (≈ 0.0719 µM) | 1 µg/mL (≈ 1.2 µM) | 0.12 µg/mL (≈ 0.144 µM) | 0.03 µg/mL (≈ 0.0359 µM) |  |  |  |  |  | CCC1OC(=O)C(C)C(=O)C(C)C(OC2OC(C)CC(N(C)C)C2O)C(C)(OC(=O)OCC#Cc2ccc(-c3cccnn3)cc2)CC(C)C(=O)C(C)C2NC(=O)OC12C (centres unmarked) [Compound 87]
16 |  |  |  |  |  | > 16 µg/mL | 1 µg/mL (≈ 1.25 µM) | 4 µg/mL (≈ 4.99 µM) | 2 µg/mL (≈ 2.5 µM) | 0.12 µg/mL (≈ 0.15 µM) | CC[C@H]1OC(=O)[C@H](C)C(=O)[C@H](C)[C@@H](O[C@@H]2O[C@H](C)C[C@H](N(C)C)[C@H]2O)[C@](C)(OC(=O)NN2CCC(c3ccccc3)CC2)C[C@@H](C)C(=O)[C@H](C)[C@H]2NC(=O)O[C@@]21C [Compound 807]
17 | >16 µg/mL | 0.5 µg/mL (≈ 0.682 µM) | 4 µg/mL (≈ 5.46 µM) | 4 µg/mL (≈ 5.46 µM) | 0.12 µg/mL (≈ 0.164 µM) |  |  |  |  |  | CC[C@H]1OC(=O)[C@H](C)C(=O)[C@H](C)[C@@H](O[C@@H]2O[C@H](C)C[C@H](N(C)C)[C@H]2O)[C@](C)(OC(=O)NNc2ccccc2)C[C@@H](C)C(=O)[C@H](C)[C@H]2NC(=O)O[C@@]21C [Compound 624]
18 | >16 µg/mL | 0.25 µg/mL (≈ 0.335 µM) | 4 µg/mL (≈ 5.36 µM) | 2 µg/mL (≈ 2.68 µM) | 0.03 µg/mL (≈ 0.0402 µM) |  |  |  |  |  | CC[C@H]1OC(=O)[C@H](C)C(=O)[C@H](C)[C@@H](O[C@@H]2O[C@H](C)C[C@H](N(C)C)[C@H]2O)[C@](C)(OC(=O)NNCc2ccccc2)C[C@@H](C)C(=O)[C@H](C)[C@H]2NC(=O)O[C@@]21C [Compound 625]
19 | >16 µg/mL | 0.25 µg/mL (≈ 0.322 µM) | 4 µg/mL (≈ 5.16 µM) | 1 µg/mL (≈ 1.29 µM) | 0.06 µg/mL (≈ 0.0773 µM) |  |  |  |  |  | CC[C@H]1OC(=O)[C@H](C)C(=O)[C@H](C)[C@@H](O[C@@H]2O[C@H](C)C[C@H](N(C)C)[C@H]2O)[C@](C)(OC(=O)NOCCCc2ccccc2)C[C@@H](C)C(=O)[C@H](C)[C@H]2NC(=O)O[C@@]21C [Compound 612]
20 | 16 µg/mL (≈ 21.1 µM) | 0.12 µg/mL (≈ 0.158 µM) | 1 µg/mL (≈ 1.32 µM) | 0.12 µg/mL (≈ 0.158 µM) | 0.03 µg/mL (≈ 0.0395 µM) |  |  |  |  |  | CCC1OC(=O)C(C)C(=O)C(C)C(OC2OC(C)CC(N(C)C)C2O)C(C)(OC(=O)OCC=Cc2ccccc2)CC(C)C(=O)C(C)C2NC(=O)OC12C (centres unmarked) [Compound 6]
21 | 16 µg/mL (≈ 19.4 µM) | 0.25 µg/mL (≈ 0.303 µM) | 2 µg/mL (≈ 2.42 µM) | 0.5 µg/mL (≈ 0.605 µM) | 0.06 µg/mL (≈ 0.0726 µM) |  |  |  |  |  | CCC1OC(=O)C(C)C(=O)C(C)C(OC2OC(C)CC(N(C)C)C2O)C(C)(OC(=O)NOCc2ccc(-c3ncccn3)cc2)CC(C)C(=O)C(C)C2NC(=O)OC12C (centres unmarked) [Compound 599]
22 | 8 µg/mL (≈ 9.58 µM) | 0.06 µg/mL (≈ 0.0719 µM) | 2 µg/mL (≈ 2.4 µM) | 0.12 µg/mL (≈ 0.144 µM) | 0.03 µg/mL (≈ 0.0359 µM) |  |  |  |  |  | CCC1OC(=O)C(C)C(=O)C(C)C(OC2OC(C)CC(N(C)C)C2O)C(C)(OC(=O)OCC#Cc2ccc(-c3cnccn3)cc2)CC(C)C(=O)C(C)C2NC(=O)OC12C (centres unmarked) [Compound 86]
